Measured values as given in PMC13224100, “Esterase-Responsive Mitochondria-Targeted Hydropersulfide Donors Mitigate Doxorubicin Cardiotoxicity While Preserving Anticancer Activity” (Angewandte Chemie (International ed. in English), 2025).
Several values for one entry are separate records, joined by “and”; a condition that tells them apart may be missing. Equal entries are not always repeated.

Key:
[1] = tested on: HepG2 cells; experiment: Intracellular ATP levels (CellTiter-Glo) under DOX; assay type: cell-based; conditions: donor 25 μM, 4 h pretreatment, DOX 5 μM 24 h
Protocol: (§1) Figure 6. a) Basal sulfane sulfur (SS) levels in H9c2 cardiomyocyte, MDA-MB-468, MCF-7, and HepG2 cell lines as detected by SSP4 fluorescence. b) Representative images and c) basal levels of mitochondrial membrane potential (MMP) in H9c2 and cancer cells (MDA-MB-468, MCF-7, and HepG2). d) Impact of APT-1 (25 μM) or APT-1-TPP (25 μM) on MMP in DOX (5 μM)-treated (d) H9c2 and e) HepG2 cells. Impact of APT-1 (25 μM) and APT-1-TPP (25 μM) on ATP levels in DOX (5 μM)-treated f) H9c2 and g) HepG2 cells. Results are expressed as mean ± SEM, n = 3–6; *P < 0.05, **P < 0.01, ***P < 0.001, ****P < 0.0001. Significances in (a) and (c) are presented with respect to H9c2 cells.
(§2) We then examined how RSSH donors influence MMP during DOX exposure. As expected, DOX alone induced mitochondrial depolarization in H9c2 cells, reducing MMP to ca. 50% of control (Figure 6d). […] To complement these observations, we quantified intracellular ATP levels as a functional readout of mitochondrial activity. […]
(§3) Briefly, H9c2 cells and HepG2 cells were seeded in 96-well white-bottom plate (Alkali Scientific, SKU:TPW9096, TC-treated) at 5000 cells/well. After treatment (Ctrl, 5 μM DOX alone, 4 h pretreatment of 25 μM APT-1 + 24 h cotreatment with 5 μM DOX, and 4 h pretreatment of 25 μM APT-1-TPP + 24 h cotreatment with 5 μM DOX, in clear DMEM medium with 10% FBS), cells were equilibrated at rt for 30 min before CellTiter-Glo® reagent was added to each well. Plates were then placed on an orbital shaker for 2 min and incubated at rt for another 20 min.
(§4) Chemiluminescence was measured using Tecan plate reader (SPARK Part No. 30124664 Version 1.7, serial No. 1909010319). Cellular AT P concentration was calculated based on the AT P calibration curve and normalized to cell count. […] Each treatment condition was performed in 6 technical replicates per biological replicate, and the experiment was independently repeated three times (n = 3 biological replicates).
(§5) Data are presented as mean ± SEM. […]

[2] = tested on: H9c2 cells; experiment: Intracellular ATP levels (CellTiter-Glo) under DOX; assay type: cell-based; conditions: donor 25 μM, 4 h pretreatment, DOX 5 μM 24 h
Protocol: as §1, §2, §3, §4, §5

[3] = tested on: porcine liver esterase (PLE); experiment: Esterase-mediated RSSH release kinetics with HPE-IAM trapping (UPLC-MS); assay type: biochemical; conditions: precursor 25 μM, PLE 1 U mL^−1, HPE-IAM 250 μM, ammonium bicarbonate pH 7.4, DTPA, 37 °C; for half-life at 25 µM: pig, porcine liver esterase, read-out: t1/2 (min) Precursor consumption
Protocol: We then assessed esterase-mediated activation of AST-2 by incubating it with porcine liver esterase (PLE) in the presence of β-(4-hydroxyphenyl)ethyl iodoacetamide (HPE-IAM, 10 equiv), a trapping agent for RSSH.[39] We anticipated that PLE-catalyzed hydrolysis would release RSSH, which would subsequently be trapped by HPE-IAM to generate RSS-HPE-AM (Figure 1a). […] In addition, a minor amount of dialkyl trisulfide formation is observed (Figures 1b and S5), which we attribute to the reaction of the released RSSH with the precursor AST-2.
Figure 1. a) Schematic of esterase-mediated RSSH release from AST-2 in the presence of the trapping agent HPE-IAM. b) Representative UPLC-MS traces showing time-dependent conversion of AST-2 (25 μM) to RSS-HPE-AM upon treatment with porcine liver esterase (1 U mL^−1) and HPE-IAM (250 μM) in 100 mM ammonium bicarbonate buffer (pH 7.4) containing the metal chelator diethylenetriaminepentaacetic acid (DTPA) (100 μM) at 37 °C. Aliquots were quenched with formic acid and analyzed by UPLC-MS. […] Rate constants and half-lives are reported as mean ± SD (n = 3). Curves represent best fits to single-exponential functions.
Figure 2. a) Reaction scheme showing esterase-triggered RSSH release from APT-1 via a two-step activation involving deacetylation and intramolecular cyclization. b) Representative UPLC-MS traces showing the time-dependent conversion of APT-1 (25 μM) to intermediate 1 and subsequent formation of RSS-HPE-AM in the presence of PLE (1 U mL^−1) and HPE-IAM (250 μM) at 37 °C. Asterisk indicates a minor impurity in the blank control. […] Rate constants and half-lives are reported as mean ± SD (n = 3). Curves represent best fits to single exponential functions as described in the text.
B. Kinetics of RSSH Generation.
Kinetics of RSSH generation were conducted as previously described.[5] Stock solutions of RSSH […]
precursor (10 mM in DMSO), HPE-IAM (100mM in DMSO), and porcine liver esterase (PLE, 2000 U/mL in ammonium bicarbonate buffer) were freshly prepared. RSSH precursors (25 μM) were […]
then immediately incubated with HPE-IAM (250 μM) and PLE (1 U/mL, from Sigma-Aldrich, […]
E3019-20KU, ≥ 15 U/mg protein) in ammonium bicarbonate buffer (100 mM, pH 7.4) containing diethylenetriaminepentaacetic acid (DTPA, 100 μM) at 37 °C. At the indicated time points, 500 μL […]
aliquots were withdrawn, quenched with concentrated formic acid (5 μL, […]), and […]
ultracentrifuged at 12,500 rpm for 5 min. The resulting supernatants were diluted with acetonitrile […]
(200 μL supernatant + 300 μL of acetonitrile) and analyzed by UPLC–MS using a Waters Acquity […]
(MSe, 10 scans/s). Chromatographic separation was performed on a C18 reverse-phase column […]
(Waters Acquity BEH C18, 2.1 × 50 mm, 1.7 μm) at 4 °C, with a flow rate of 0.3 mL/min and the […]
following gradient (v/v; water containing 0.1% formic acid as solvent A, acetonitrile as solvent B):
B; 8.5–10 min, return to 100% A. The injection volume was 5 μL. Mass spectral data were […]
processed using MassLynx 4.1, and extracted ion chromatograms (EICs) corresponding to the […]
exact masses of the RSSH precursor, intermediate, and the trapped product (RSS–HPE-AM) […]
were integrated to quantify substrate consumption and product formation. Kinetic data were fitted […]
to a single exponential curve using Origin. All experiments were performed in triplicate (n = 3), […]
and results are reported as mean ± standard deviation (SD).
HRMS Data for Compounds Formed during RSSH Generation from AST-2 […]
Figure S2. HRMS of the peak eluting at 5.6 min corresponding to AST-2.
Esterase-mediated hydrolysis of AST-2-TPP monitored by UPLC-MS […]
Figure S11. (A) Representative UPLC-MS traces showing esterase-mediated hydrolysis of AST-2-TPP (25 […]
μM) in the presence of HPE-IAM (250 μM) in ammonium bicarbonate buffer (pH 7.4, 100 mM) containing […]
the metal chelator DTPA (100 μM) at 37 °C. […]

half-life at 25 µM [3]	first-order rate constant k (k1) of precursor consumption / deacetylation [3]	first-order rate constant k (k2) of RSS-HPE-AM formation (RSSH release) [3]	SMILES	effect on DOX-induced ATP depletion [1]	effect on DOX-reduced ATP levels [2]
17.1 ± 0.4 min	0.0406 ± 0.0010 min⁻¹	0.0067 ± 0.0006 min⁻¹	COC(=O)C(NC(C)=O)C(C)(C)SSC(=O)N(C)CCOC(C)=O (stereo not shown) [APT-1]	neither donor rescued DOX-induced ATP depletion	restored
50.1 ± 1.8 min	0.0139 ± 0.0005 min⁻¹	0.0144 ± 0.0006 min⁻¹	COC(=O)SSC(C)(C)C(NC(C)=O)C(=O)OC (stereo not shown) [AST-2]	–	–

SMILES	half-life at 25 µM [3]	first-order rate constant k (k1) of precursor consumption / deacetylation [3]	first-order rate constant k (k2) of RSS-HPE-AM formation (RSSH release) [3]	effect on DOX-induced ATP depletion [1]	effect on DOX-reduced ATP levels [2]
CC(=O)NC(C(=O)N(C)CCC[P+](c1ccccc1)(c1ccccc1)c1ccccc1)C(C)(C)SSC(=O)N(C)CCOC(C)=O (stereo not shown) [APT-1-TPP]	5.2 ± 0.2 min	0.1338 ± 0.0049 min⁻¹ and 0.134 ± 0.005 min⁻¹	0.0056 ± 0.0004 min⁻¹	neither donor rescued DOX-induced ATP depletion	restored
COC(=O)SSC(C)(C)C(NC(C)=O)C(=O)N(C)CCC[P+](c1ccccc1)(c1ccccc1)c1ccccc1 (stereo not shown) [AST-2-TPP]	20.7 ± 0.6 min	0.0335 ± 0.0010 min⁻¹	0.03467 ± 0.0028 min⁻¹ and 0.0347 ± 0.0028 min⁻¹	–	–
